Test [1] addresses T1, cloned human μ-opioid receptor (Homo sapiens, UniProt P35372). In words: biochemical.
The target of a further test is δ-opioid receptor (Homo sapiens, UniProt P41143). Nature of the test: biochemical. It counts as binding.
A further test has as its target κ-opioid receptor (Homo sapiens, UniProt P41145). Nature of the test: biochemical. In kind it is binding.
The target in test [2] is T1, cloned human μ-opioid receptor. The settings on record: for fold more potent than naloxone as μ-antagonist: [35S]GTP-γ-S functional binding assay; for μ-antagonist potency compared with naloxone or naltrexone (in words): [35S]GTP-γ-S assay; for Ke: shift of DAMGO dose-response curve by test agent, hMOR-CHO membranes, ± SD. (GTPγS resists hydrolysis and so accumulates on activated G proteins.)

Test [3] deals with T2, μ-opioid receptor (Homo sapiens, UniProt P35372). In words: biochemical.
Test [4] has as its target T1, cloned human μ-opioid receptor. The settings on record: full inverse agonist curve; cited from earlier work.
The target in test [5] is T2, μ-opioid receptor. The settings on record: for Ki: read-out: Ki, μ.
In test [6] the target is T1, cloned human μ-opioid receptor. The settings on record: 10 μM, non-dependent hMOR cells.
The mark [7] stands for this setting: read-out: Ki, δ, 125I-IOXY, hDOR-CHO, n = 3 (± SD).

Entries after “also recorded” stand apart in the source; their conditions may differ. Read-outs that look alike come from different tables or passages of the source.

Chain of δ-opioid receptor (P41143 whole entry): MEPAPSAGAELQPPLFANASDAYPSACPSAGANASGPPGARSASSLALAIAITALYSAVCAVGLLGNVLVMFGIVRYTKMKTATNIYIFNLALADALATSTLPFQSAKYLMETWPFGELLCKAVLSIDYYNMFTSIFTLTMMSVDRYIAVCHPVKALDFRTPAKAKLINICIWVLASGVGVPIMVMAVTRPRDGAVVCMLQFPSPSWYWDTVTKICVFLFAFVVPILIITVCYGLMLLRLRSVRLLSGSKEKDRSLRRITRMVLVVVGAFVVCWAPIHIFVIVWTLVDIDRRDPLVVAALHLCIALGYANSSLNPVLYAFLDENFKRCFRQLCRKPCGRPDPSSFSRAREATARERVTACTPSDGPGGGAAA
Chain of κ-opioid receptor (P41145 whole entry): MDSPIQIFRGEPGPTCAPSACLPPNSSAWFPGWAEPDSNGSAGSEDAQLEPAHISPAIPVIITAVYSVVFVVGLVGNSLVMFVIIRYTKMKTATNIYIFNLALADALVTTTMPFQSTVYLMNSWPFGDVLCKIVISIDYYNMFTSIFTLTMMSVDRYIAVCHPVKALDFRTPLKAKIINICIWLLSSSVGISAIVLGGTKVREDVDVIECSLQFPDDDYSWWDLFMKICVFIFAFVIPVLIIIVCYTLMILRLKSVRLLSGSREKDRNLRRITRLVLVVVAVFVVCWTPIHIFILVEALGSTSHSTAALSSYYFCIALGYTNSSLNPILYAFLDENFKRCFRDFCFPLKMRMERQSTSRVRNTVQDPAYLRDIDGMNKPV
T2 sequence (P35372 whole entry): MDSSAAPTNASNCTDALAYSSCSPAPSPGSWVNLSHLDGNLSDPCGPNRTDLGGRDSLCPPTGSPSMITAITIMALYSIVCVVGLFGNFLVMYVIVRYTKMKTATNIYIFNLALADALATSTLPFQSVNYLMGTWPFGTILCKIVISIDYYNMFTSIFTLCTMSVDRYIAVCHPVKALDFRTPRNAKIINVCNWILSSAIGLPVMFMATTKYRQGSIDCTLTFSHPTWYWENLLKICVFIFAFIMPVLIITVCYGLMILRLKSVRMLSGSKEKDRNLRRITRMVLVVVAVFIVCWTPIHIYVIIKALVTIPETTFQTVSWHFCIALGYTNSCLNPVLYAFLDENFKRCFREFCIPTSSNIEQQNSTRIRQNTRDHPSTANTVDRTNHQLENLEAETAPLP
T1 sequence (P35372 whole entry): as above

In test [1], `Oc1cccc([C@@]23CCC[C@@H](C2)N(CC=Cc2ccccc2)CC3)c1` [(+)−6, 3-((1S,5R)-2-Cinnamyl-2-azabicyclo[3.3.1]nonan-5-yl)phenol] gave a Kb of 0.58 ± 0.07 nM. Also, the Ki – broadly, the dissociation constant of the complex between target and ligand, obtained from inhibition or displacement – is 138 ± 5 nM on δ-opioid receptor, 125 ± 3 nM on κ-opioid receptor and 2 ± 0.13 nM at μ-opioid receptor [3]. Moreover, the “fold more potent than naloxone as μ-antagonist” value in test [2] came to 4 fold.

In the case of `Oc1cccc([C@@]23CCC[C@@H](C2)N(C/C=C\c2ccccc2)CC3)c1` [(+)−9, 3-((1S,5R)-2-((Z)-3-phenylallyl)-2-azabicyclo[3.3.1]nonan-5-yl)phenol], the “inverse agonist activity at non-dependent μ-opioid receptors” value in test [4] is “inverse agonist”. In test [1], this compound yielded a Kb of 3.1 ± 0.7 nM. The Ki at δ-opioid receptor was determined as 454 ± 25 nM; on κ-opioid receptor it was 123 ± 4 nM; on μ-opioid receptor [3], 26 ± 2 nM. Also, the “μ-antagonist potency compared with naloxone or naltrexone (in words)” value in test [2] is “about as potent as naloxone”.

For the compound `Oc1cccc([C@]23CCC[C@H](C2)N(C[C@H]2C[C@@H]2c2ccccc2)CC3)c1` [(+)−29, 3-((1R,5S)-2-(((1’S,2’S)-2-Phenylcyclopropyl)methyl)-2-azabicyclo[3.3.1]nonan-5-yl)phenol], the inhibition constant (Ki) at δ-opioid receptor (setting [7]) was determined as 165 ± 7 nM; at κ-opioid receptor (read-out: Ki, κ), 72 ± 4 nM; on μ-opioid receptor [5], 3 ± 0.26 nM. For the same compound, the Ke in test [2] is on record as 0.17 ± 0.02 nM.

As for `Oc1cccc([C@@]23CCC[C@@H](C2)N(C[C@H]2C[C@@H]2c2ccccc2)CC3)c1` [(+)−30, 3-((1S,5R)-2-(((1’S,2’S)-2-Phenylcyclopropyl)methyl)-2-azabicyclo[3.3.1]nonan-5-yl)phenol], the Ki at δ-opioid receptor (setting [7]) came to 183 ± 7 nM; at κ-opioid receptor (read-out: Ki, κ) it was 323 ± 15 nM; at μ-opioid receptor [5], 16 ± 1 nM. In addition, in test [2], the “μ-antagonist potency compared with naloxone or naltrexone (in words)” value was “equipotent with naloxone; also recorded: about as potent as naloxone”. The Ke in test [2] was 2.2 ± 0.4 nM.

`Oc1cccc([C@]23CCC[C@H](C2)N(C[C@H]2C[C@H]2c2ccccc2)CC3)c1` [(+)−31, 3-((1R,5S)-2-(((1’S,2’R)-2-Phenylcyclopropyl)methyl)-2-azabicyclo[3.3.1]nonan-5-yl)phenol]: the Ki at δ-opioid receptor (setting [7]) turned out to be 1980 ± 54 nM; on κ-opioid receptor (read-out: Ki, κ) it was 475 ± 33 nM; on μ-opioid receptor [5] it was 459 ± 14 nM. Besides, the Ke in test [2] is reported as 33 ± 7 nM. Also, the “fold difference in μ Ki between the cis stereoisomers” value on μ-opioid receptor [5] is given as roughly 42 fold.

With `Oc1cccc([C@@]23CCC[C@@H](C2)N(C[C@H]2C[C@H]2c2ccccc2)CC3)c1` [(+)−32, 3-((1S,5R)-2-(((1’S,2’R)-2-Phenylcyclopropyl)methyl)-2-azabicyclo[3.3.1]nonan-5-yl)phenol], the Ki on δ-opioid receptor (setting [7]) was 547 ± 23 nM; on κ-opioid receptor (read-out: Ki, κ), 174 ± 12 nM; on μ-opioid receptor [5] it was 76 ± 0.3 nM. Moreover, the Ke in test [2] came out at 18 ± 6 nM.

For `Oc1cccc([C@]23CCC[C@H](C2)N(CC=Cc2ccccc2)CC3)c1` [(−)−6, 3-((1R,5S)-2-Cinnamyl-2-azabicyclo[3.3.1]nonan-5-yl)phenol], in test [6], the “inverse agonist activity (effect on [35S]GTP-γ-S binding)” value is “little or no activity as an inverse agonist; also recorded: did not act as inverse agonists”. The same compound had a Kb in test [1] of 6.6 ± 0.7 nM. Also, the results for the Ki on δ-opioid receptor, at κ-opioid receptor and at μ-opioid receptor [3] were 152 ± 5 nM, 225 ± 7 nM and 6 ± 0.39 nM, respectively. For the same compound, the “μ-antagonist potency compared with naloxone or naltrexone (in words)” value in test [2] is reported as “four fold less active as opioid antagonists”.

Consider `Oc1cccc([C@]23CCC[C@H](C2)N(C/C=C\c2ccccc2)CC3)c1` [(−)−9, 3-((1R,5S)-2-((Z)-3-phenylallyl)-2-azabicyclo[3.3.1]nonan-5-yl)phenol], for which the Kb in test [1] came out at 7.7 ± 1.6 nM. For the same compound, the Ki stood at 359 ± 18 nM at δ-opioid receptor, 367 ± 18 nM at κ-opioid receptor and 14 ± 0.7 nM at μ-opioid receptor [3].

As for `Oc1cccc([C@@]23CCC[C@@H](C2)N(C[C@@H]2C[C@H]2c2ccccc2)CC3)c1` [(−)−29, 3-((1S,5R)-2-(((1’R,2’R)-2-Phenylcyclopropyl)methyl)-2-azabicyclo[3.3.1]nonan-5-yl)phenol], the Ki on δ-opioid receptor (setting [7]) was 800 ± 29 nM; on κ-opioid receptor (read-out: Ki, κ) it was 390 ± 16 nM; at μ-opioid receptor [5], 47 ± 3 nM. Also, in test [2], the Ke worked out at 9.4 ± 1.5 nM.

Consider `Oc1cccc([C@]23CCC[C@H](C2)N(C[C@@H]2C[C@H]2c2ccccc2)CC3)c1` [(−)−30, 3-((1R,5S)-2-(((1’R,2’R)-2-Phenylcyclopropyl)methyl)-2-azabicyclo[3.3.1]nonan-5-yl)phenol], for which the Ki at δ-opioid receptor (setting [7]) is 200 ± 10 nM. For the same compound, at κ-opioid receptor (read-out: Ki, κ), the inhibitory constant (Ki) came to 210 ± 13 nM. Also, in test [2], the “μ-antagonist potency compared with naloxone or naltrexone (in words)” value is “about equipotent with naltrexone”, the “fold more potent than naloxone as μ-antagonist” value is on record as 7 fold and the Ke is given as 0.31 ± 0.06 nM. The Ki on μ-opioid receptor [5] was determined as 4 ± 0.27 nM.

Regarding `Oc1cccc([C@@]23CCC[C@@H](C2)N(C[C@@H]2C[C@@H]2c2ccccc2)CC3)c1` [(−)−31, 3-((1S,5R)-2-(((1’R,2’S)-2-Phenylcyclopropyl)methyl)-2-azabicyclo[3.3.1]nonan-5-yl)phenol], the Ki is 610 ± 25 nM at δ-opioid receptor (setting [7]); 153 ± 7 nM at κ-opioid receptor (read-out: Ki, κ); 265 ± 17 nM on μ-opioid receptor [5]. Moreover, the Ke in test [2] was found to be 8.6 ± 1.9 nM.

As for `Oc1cccc([C@]23CCC[C@H](C2)N(C[C@@H]2C[C@@H]2c2ccccc2)CC3)c1` [(−)−32, 3-((1R,5S)-2-(((1’R,2’S)-2-Phenylcyclopropyl)methyl)-2-azabicyclo[3.3.1]nonan-5-yl)phenol], in test [6], the “inverse agonist activity (effect on [35S]GTP-γ-S binding)” value is listed as “did not act as inverse agonists”. The Ki at δ-opioid receptor (setting [7]) came to 196 ± 6 nM; on κ-opioid receptor (read-out: Ki, κ) it was 322 ± 22 nM; on μ-opioid receptor [5], 11 ± 0.9 nM. For the same compound, in test [2], the “μ-antagonist potency compared with naloxone or naltrexone (in words)” value is reported as “four fold less active as opioid antagonists”. The Ke in test [2] was 8.2 ± 1.8 nM.
